The values below come from patent EP4043466B1, “PRC2 INHIBITORS” (Mirati Therapeutics, Inc., priority 2018, dated 2019).

Where two headings read alike, the source gives them in different places.

The target in this assay is purified human, His-tagged PRC2 complex (Homo sapiens, UniProt O75530+Q15910). Description: Hot Spot HMT assay: inhibition of PRC2 enzymatic activity (transfer of tritiated methyl from SAM to core histone, filter binding). In kind it is biochemical. From the text: The assay uses purified human, His-tagged PRC2 complex, including N-terminal His-tagged EZH2 enzyme, N-terminal Flag-tagged embryonic ectoderm development protein (EED), N-terminal His-tagged suppressor of zeste 12 (SUZ12), N-terminal His-tagged AEBP2, and N-terminal His-tagged RbAp48. In this assay, the transfer of the tritiated methyl group from radiolabeled S-adenosyl methionine (SAM) to purified core histone protein by EZH2 is quantitated after filtration to determine the activity of the core PRC2 complex in the presence and absence of compound.
Chain of purified human, His-tagged PRC2 complex (Q15910 whole entry): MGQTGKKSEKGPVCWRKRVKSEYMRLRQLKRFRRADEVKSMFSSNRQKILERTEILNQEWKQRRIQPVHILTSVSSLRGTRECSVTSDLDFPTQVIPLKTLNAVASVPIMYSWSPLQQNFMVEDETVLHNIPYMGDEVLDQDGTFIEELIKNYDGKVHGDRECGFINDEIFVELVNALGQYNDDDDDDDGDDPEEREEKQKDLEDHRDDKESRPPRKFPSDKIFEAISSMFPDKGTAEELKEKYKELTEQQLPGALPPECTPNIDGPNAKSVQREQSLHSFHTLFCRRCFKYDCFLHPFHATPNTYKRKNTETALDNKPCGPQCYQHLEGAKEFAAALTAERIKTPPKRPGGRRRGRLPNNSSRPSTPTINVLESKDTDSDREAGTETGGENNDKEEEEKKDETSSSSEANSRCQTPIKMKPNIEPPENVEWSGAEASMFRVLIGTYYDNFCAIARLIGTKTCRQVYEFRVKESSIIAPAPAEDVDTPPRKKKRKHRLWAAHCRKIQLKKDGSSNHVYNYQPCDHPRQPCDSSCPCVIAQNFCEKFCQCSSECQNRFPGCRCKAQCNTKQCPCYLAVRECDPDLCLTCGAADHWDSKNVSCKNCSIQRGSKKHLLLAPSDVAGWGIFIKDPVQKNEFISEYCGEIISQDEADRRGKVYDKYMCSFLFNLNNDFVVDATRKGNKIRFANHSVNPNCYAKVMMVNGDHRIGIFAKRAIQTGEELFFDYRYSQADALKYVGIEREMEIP
Chain of purified human, His-tagged PRC2 complex (O75530 whole entry): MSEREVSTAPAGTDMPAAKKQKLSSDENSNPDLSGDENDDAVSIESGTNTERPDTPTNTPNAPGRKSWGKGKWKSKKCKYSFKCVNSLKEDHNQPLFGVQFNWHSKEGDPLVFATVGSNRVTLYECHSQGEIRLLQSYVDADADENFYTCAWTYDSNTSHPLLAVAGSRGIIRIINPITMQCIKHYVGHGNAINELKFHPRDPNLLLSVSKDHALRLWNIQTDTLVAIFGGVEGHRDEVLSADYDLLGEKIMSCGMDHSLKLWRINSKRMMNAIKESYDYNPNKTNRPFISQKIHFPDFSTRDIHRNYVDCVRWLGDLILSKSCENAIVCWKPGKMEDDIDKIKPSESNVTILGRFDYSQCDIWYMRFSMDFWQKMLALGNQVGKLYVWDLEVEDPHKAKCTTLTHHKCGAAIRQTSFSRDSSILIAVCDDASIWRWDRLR
Chain of purified human, His-tagged PRC2 complex (Q15022 whole entry partner): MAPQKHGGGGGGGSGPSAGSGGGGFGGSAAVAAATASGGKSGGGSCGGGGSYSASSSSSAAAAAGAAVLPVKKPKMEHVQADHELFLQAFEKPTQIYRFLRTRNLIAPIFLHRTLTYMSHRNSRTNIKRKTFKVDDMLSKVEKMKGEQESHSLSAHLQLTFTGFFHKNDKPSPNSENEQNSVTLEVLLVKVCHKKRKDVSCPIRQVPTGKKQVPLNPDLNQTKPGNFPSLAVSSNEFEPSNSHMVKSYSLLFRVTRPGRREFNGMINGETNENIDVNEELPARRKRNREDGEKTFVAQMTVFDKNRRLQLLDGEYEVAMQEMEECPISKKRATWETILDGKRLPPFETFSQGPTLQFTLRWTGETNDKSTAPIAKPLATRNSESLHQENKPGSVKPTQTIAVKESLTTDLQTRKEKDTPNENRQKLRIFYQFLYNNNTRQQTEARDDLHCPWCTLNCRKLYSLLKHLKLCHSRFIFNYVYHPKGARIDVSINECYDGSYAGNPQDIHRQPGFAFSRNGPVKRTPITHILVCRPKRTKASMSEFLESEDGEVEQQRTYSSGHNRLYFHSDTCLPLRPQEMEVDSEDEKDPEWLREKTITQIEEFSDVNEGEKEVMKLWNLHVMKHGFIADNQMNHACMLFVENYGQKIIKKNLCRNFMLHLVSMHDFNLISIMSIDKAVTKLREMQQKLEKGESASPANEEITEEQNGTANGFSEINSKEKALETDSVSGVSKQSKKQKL
Chain of purified human, His-tagged PRC2 complex (Q6ZN18 whole entry partner): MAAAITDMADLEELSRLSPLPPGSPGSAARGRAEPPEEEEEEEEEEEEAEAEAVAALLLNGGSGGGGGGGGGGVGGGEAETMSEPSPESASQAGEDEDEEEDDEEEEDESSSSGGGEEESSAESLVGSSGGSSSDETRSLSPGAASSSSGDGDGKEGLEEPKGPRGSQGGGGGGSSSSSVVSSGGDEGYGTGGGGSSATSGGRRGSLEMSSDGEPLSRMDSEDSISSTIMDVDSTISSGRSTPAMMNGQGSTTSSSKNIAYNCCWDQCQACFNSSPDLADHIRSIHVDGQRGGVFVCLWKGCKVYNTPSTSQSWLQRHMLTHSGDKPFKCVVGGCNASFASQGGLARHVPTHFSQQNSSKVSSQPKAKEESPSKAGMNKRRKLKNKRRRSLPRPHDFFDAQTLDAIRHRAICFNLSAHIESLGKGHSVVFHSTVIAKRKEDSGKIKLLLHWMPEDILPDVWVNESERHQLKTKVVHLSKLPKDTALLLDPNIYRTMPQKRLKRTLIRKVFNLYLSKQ
Chain of purified human, His-tagged PRC2 complex (Q09028 whole entry partner): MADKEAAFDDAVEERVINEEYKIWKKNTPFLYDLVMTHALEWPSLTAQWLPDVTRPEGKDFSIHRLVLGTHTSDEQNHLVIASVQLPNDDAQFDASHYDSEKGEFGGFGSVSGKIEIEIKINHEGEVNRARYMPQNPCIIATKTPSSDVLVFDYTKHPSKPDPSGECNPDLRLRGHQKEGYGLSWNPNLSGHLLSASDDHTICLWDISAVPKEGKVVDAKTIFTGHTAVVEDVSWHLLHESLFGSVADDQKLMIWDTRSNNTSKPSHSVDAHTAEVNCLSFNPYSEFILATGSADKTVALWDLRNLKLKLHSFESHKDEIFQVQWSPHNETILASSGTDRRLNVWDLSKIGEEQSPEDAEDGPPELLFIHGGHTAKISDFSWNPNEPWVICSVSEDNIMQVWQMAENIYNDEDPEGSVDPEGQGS
The initial starting concentration for the serial dilutions of each compound was 1.0 µM. […] SAH (S-(5-adenosyl)-L-homocysteine) was used as a positive control for assay validation.
An aliquot of each serial dilution of test compound was added to deep 384 well plate using Acoustic Technology instrument (Echo 550, LabCyte) containing reaction buffer (50 mM Tris-HCl (pH 8.)), 0.01% Brij35, 1 mM EDTA, 1 mM DTT, 1 mM PMSF and 1% DMSO), 10 nM purified PRC2 complex and 0.05 mg/ml core histone H3 in a 5 µl volume. The reaction was mixed gently and then pre-incubated for 20 min at 30°C. The enzymatic reaction was initiated by adding 1 uM S-Adenosyl-L-[methyl - ^3H]methionine and incubated for 1 hr at 30°C. After 1 hr, the reaction product was detected using a filter binding method and the amount of tritiated H3 core histone was quantitated using a scintillation counter.

Where [1] appears, read: Inhibition of PRC2-mediated enzymatic activity, 10 nM PRC2 complex, 0.05 mg/ml core histone H3, 1 uM 3H-SAM, 1 hr at 30°C.

On to `Cc1c(-c2cnc(NCc3c(F)ccc4c3CCO4)n3cc(C#N)nc23)cnn1C(C)C` [Example 26, 5-(((5-fluoro-2,3-dihydrobenzofuran-4-yl)methyl)amino)-8-(1-isopropyl-5-methyl-1H-pyrazol-4-yl)imidazo[1,2-c]pyrimidine-2-carbonitrile], for which the IC50 (commonly the point on the concentration scale where inhibition reaches its midpoint) under setting [1] fell in the range of 0.1 to 0.5 µM.

On to `N#Cc1cn2c(NCc3c(F)ccc4c3CCO4)ncc(-c3ccc(C4COCCN4)cc3)c2n1` (stereo not drawn) [Example 225, 5-(((5-fluoro-2,3-dihydrobenzofuran-4-yl)methyl)amino)-8-(4-(morpholin-3-yl)phenyl)imidazo[1,2-c]pyrimidine-2-carbonitrile], for which the IC50 under setting [1] was less than 0.1 µM.

Under setting [1], `N#Cc1cn2c(NCc3c(F)ccc4c3CCO4)ncc(-c3cnccc3Cl)c2n1` [Example 109, 8-(4-chloropyridin-3-yl)-5-(((5-fluoro-2,3-dihydrobenzofuran-4-yl)methyl)amino)imidazo[1,2-c]pyrimidine-2-carbonitrile] returned an IC50 of less than 0.1 µM.

For the compound `N#Cc1cn2c(NCc3c(F)ccc4c3CCO4)ncc(-c3ccc(CN4CCC(O)C4)cc3)c2n1` (stereo not drawn) [Example 151, 5-(((5-fluoro-2,3-dihydrobenzofuran-4-yl)methyl)amino)-8-(4-((3-hydroxypyrrolidin-1-yl)methyl)phenyl)imidazo[1,2-c]pyrimidine-2-carbonitrile], the IC50 under setting [1] is less than 0.1 µM.

Consider `Cc1nn(C(C)C)c(C)c1-c1cnc(NCc2c(F)ccc3c2CCO3)n2cc(C#N)nc12` [Example 92, 5-(((5-fluoro-2,3-dihydrobenzofuran-4-yl)methyl)amino)-8-(1-isopropyl-3,5-dlmethyl-1H-pyrazol-4-yl)imidazo[1,2-c]pyrimidine-2-carbonitrile], for which, under setting [1], the IC50 was 0.1 to 0.5 µM.

Take `COc1ccc(-c2cnc(NCc3c(F)ccc4c3CCO4)n3cc(C#N)nc23)cn1` [Example 94, 5-(((5-fluoro-2,3-dihydrobenzofuran-4-yl)methyl)amino)-8-(6-methoxypyridin-3-yl)imidazo[1,2-c]pyrimidine-2-carbonitrile]: under setting [1], the IC50 was less than 0.1 µM.

Turning to `Cc1cc(-c2cnc(NCc3cccc4c3CCO4)n3cc(C#N)nc23)n(C)n1` [Example 30, 5-(((2,3-dihydrobenzofuran-4-yl)methyl)amino)-8-(1,3-dimethyl-1H-pyrazol-5-yl)imidazo[1,2-c]pyrimidine-2-carbonitrile], the IC50 under setting [1] lay within 0.1 to 0.5 µM.

Under setting [1], `Cc1nc(C2CC2)ncc1-c1cnc(NCc2c(F)ccc3c2CCO3)n2cc(C(N)=O)nc12` [Example 15, 8-(2-cyclopropyl-4-methylpyrimidin-5-yl)-5-(((5-fluoro-2,3-dihydrobenzofuran-4-yl)methyl)amino)imidazo[1,2-c]pyrimidine-2-carboxamide] showed an IC50 of 0.1 to 0.5 µM.

Turning to `CNCc1cc(-c2cnc(NCc3c(F)ccc4c3CCO4)n3cc(C#N)nc23)n(C)n1` [Example 211, 5-(((5-fluoro-2,3-dihydrobenzofuran-4-yl)methyl)amino)-8-(1-methyl-3-((methylamino)methyl)-1H-pyrazol-5-yl)imidazo[1,2-c]pyrimidine-2-carbonitrile], the IC50 was less than 0.1 µM.

On to “8-(1,3-dimethyl-1H-pyrazol-5-yl)-5-(((6-fluorochroman-5-yl)methyl)amino)imidazo[1,2-c]pyrimidine-2-carbonitrile [Example 122]”, for which the IC50 under setting [1] is greater than 0.5 µM.

The compound `COc1cc(C)c(-c2cnc(NCc3c(F)ccc4c3CCO4)n3cc(C(N)=O)nc23)cn1` [Example 14, 5-(((5-fluoro-2,3-dihydrobenzofuran-4-yl)methyl)amino)-8-(6-methoxy-4-methylpyridin-3-yl)imidazo[1,2-c]pyrimidine-2-carboxamide] showed an IC50 under setting [1] of 0.1 to 0.5 µM.

Compound `CN(C)Cc1ccc(-c2cnc(NCc3c(F)ccc4c3CCO4)n3cc(C#N)nc23)c(Cl)c1F` [Example 83, 8-(2-chloro-4-((dimethylamino)methyl)-3-fluorophenyl)-5-(((5-fluoro-2,3-dihydrobenzofuran-4-yl)methyl)amino)imidazo[1,2-c]pyrimidine-2-carbonitrile] displayed an IC50 under setting [1] of less than 0.1 µM.

In the case of `N#Cc1cn2c(NCc3c(F)ccc4c3CCO4)ncc(-c3n[nH]cc3Br)c2n1` [Example 232, 8-(4-bromo-1H-pyrazol-3-yl)-5-(((5-fluoro-2,3-dihydrobenzofuran-4-yl)methyl)amino)imidazo[1,2-c]pyrimidine-2-carbonitrile], the IC50 under setting [1] lay in the range of 0.1 to 0.5 µM.

For the compound `N#Cc1cn2c(NCc3c(F)ccc4c3CCO4)ncc(-c3cnc(N)c(C(F)(F)F)c3)c2n1` [Example 134, 8-(6-amino-5-(trifluoromethyl)pyridin-3-yl)-5-(((5-fluoro-2,3-dihydrobenzofuran-4-yl)methyl)amino)imidazo[1,2-c]pyrimidine-2-carbonitrile], the IC50 under setting [1] lay within 0.1 to 0.5 µM.

`Cc1nn(C(C)C)cc1-c1cnc(NCc2c(F)ccc3c2CCO3)n2cc(C#N)nc12` [Example 23, 5-(((5-fluoro-2,3-dihydrobenzofuran-4-yl)methyl)amino)-8-(1-isopropyl-3-methyl-1H-pyrazol-4-yl)imidazo[1,2-c]pyrimidine-2-carbonitrile]: the IC50 under setting [1] is 0.1 to 0.5 µM.

With `Cc1n[nH]c(C)c1-c1cnc(NCc2c(F)ccc3c2CCO3)n2cc(C#N)nc12` [Example 104, 8-(3,5-dimethyl-1H-pyrazol-4-yl)-5-(((5-fluoro-2,3-dihydrobenzofuran-4-yl)methyl)amino)imidazo[1,2-c]pyrimidine-2-carbonitrile], the IC50 under setting [1] is greater than 0.5 µM.

With `COc1cncc(-c2cnc(NCc3c(F)ccc4c3CCO4)n3cc(C#N)nc23)c1` [Example 93, 5-(((5-fluoro-2,3-dihydrobenzofuran-4-yl)methyl)amino)-8-(5-methoxypyridin-3-yl)imidazo[1,2-c]pyrimidine-2-carbonitrile], the concentration for half-maximal inhibition (IC50) under setting [1] fell in the range of 0.1 to 0.5 µM.

With `N#Cc1cn2c(NCc3c(F)ccc4c3CCO4)ncc(-c3ccc(N4CCCCC4)nc3)c2n1` [Example 135, 5-(((5-fluoro-2,3-dihydrobenzofuran-4-yl)methyl)amino)-8-(6-(piperidin-1-yl)pyridin-3-yl)imidazo[1,2-c]pyrimidine-2-carbonitrile], the IC50 under setting [1] is less than 0.1 µM.

`CN1CCC1c1ccc(-c2cnc(NCc3c(F)ccc4c3CCO4)n3cc(C#N)nc23)cc1` (stereo not drawn) [Example 221, 5-(((5-fluoro-2,3-dihydrobenzofuran-4-yl)methyl)amino)-8-(4-(1-methylazetidin-2-yl)phenyl)imidazo[1,2-c]pyrimidine-2-carbonitrile] returned an IC50 under setting [1] of less than 0.1 µM.

In turn, `Cc1ncccc1-c1cnc(NCc2c(F)ccc3occc23)n2cc(C#N)nc12` [Example 22, 5-(((5-fluorobenzofuran-4-yl)methyl)amino)-8-(2-methylpyridin-3-yl)imidazo[1,2-c]pyrimidine-2-carbonitrile] yielded an IC50 under setting [1] of 0.1 to 0.5 µM.

Take `N#Cc1cn2c(NCc3c(F)ccc4c3CCO4)ncc(C3CCOCC3)c2n1` [Example 141, 5-(((5-fluoro-2,3-dihydrobenzofuran-4-yl)methyl)amino)-8-(tetrahydro-2H-pyran-4-yl)imidazo[1,2-c]pyrimidine-2-carbonitrile]: under setting [1], the half-maximal inhibitory concentration (IC50) is greater than 0.5 µM.

For `N#Cc1cn2c(NCc3c(F)ccc4c3CCO4)ncc(-c3cnn(C4CCOC4)c3)c2n1` (stereo not drawn) [Example 107, 5-(((5-fluoro-2,3-dihydrobenzofuran-4-yl)methyl)amino)-8-(1-(tetrahydrofuran-3-yl)-1H-pyrazol-4-yl)imidazo[1,2-c]pyrimidine-2-carbonitrile], the half-maximal inhibitory concentration (IC50) under setting [1] is 0.1 to 0.5 µM.

Under setting [1], `COc1cc(Cl)c(-c2cnc(NCc3c(F)ccc4c3CCO4)n3cc(C#N)nc23)cn1` [Example 91, 8-(4-chloro-6-methoxypyridin-3-yl)-5-(((5-fluoro-2,3-dihydrobenzofuran-4-yl)methyl)amino)imidazo[1,2-c]pyrimidine-2-carbonitrile] gave an IC50 of 0.1 to 0.5 µM.

On to `COc1cc(C)c(-c2cnc(NCc3c(F)ccc4c3CCO4)n3cc(C(=O)O)nc23)cn1` [Example 6, 5-(((5-fluoro-2,3-dihydrobenzofuran-4-yl)methyl)amino)-8-(6-methoxy-4-methylpyridin-3-yl)imidazo[1,2-c]pyrimidine-2-carboxylic acid], for which, under setting [1], the IC50 is 0.1 to 0.5 µM.

In turn, `N#Cc1cn2c(NCc3c(F)ccc4c3CCO4)ncc(-c3cnn(C4CCOCC4)c3)c2n1` [Example 120, 5-(((5-fluoro-2,3-dihydrobenzofuran-4-yl)methyl)amino)-8-(1-(tetrahydro-2H-pyran-4-yl)-1H-pyrazol-4-yl)imidazo[1,2-c]pyrimidine-2-carbonitrile] came in with a concentration for half-maximal inhibition (IC50) under setting [1] greater than 0.5 µM.

For `COc1cc(C)c(-c2cnc(NCc3c(F)ccc4c3CCO4)n3cc(C#N)nc23)cn1` [Example 24, 5-(((5-fluoro-2,3-dihydrobenzofuran-4-yl)methyl)amino)-8-(6-methoxy-4-methylpyridin-3-yl)imidazo[1,2-c]pyrimidine-2-carbonitrile], under setting [1], the half-maximal inhibitory concentration (IC50) is 0.1 to 0.5 µM.

For `CN(C)Cc1cc(-c2cnc(NCc3c(F)ccc4c3CCO4)n3cc(C#N)nc23)n(C)n1` [Example 210, 8-(3-((dimethylamino)methyl)-1-methyl-1H-pyrazol-5-yl)-5-(((5-fluoro-2,3-dihydrobenzofuran-4-yl)methyl)amino)imidazo[1,2-c]pyrimidine-2-carbonitrile], the IC50 is less than 0.1 µM.
